In PMC5007476, “Use of cross-reactivity immunoassay to orient insulin replacement in diabetic patients with high levels of insulin antibodies” (MethodsX, 2016):
Where two headings read alike, the source gives them in different places. Each block holds one substance with its values, some of them ahead of it.

Experiments:
[1] = test system: insulin antibodies (IA) in patient serum; assay: Displacement radioimmunoassay (RIA) for affinity and cross-reactivity of insulin antibodies in patient serum; assay type: binding, human; details: for K0, average (median) affinity constant: at start of study (before change of insulin), patient serum 30 μL, duplicates, 5 days at 4 °C (near equilibrium), tracer mono [^125I A14] insulin ~20,000 cpm (5.8 × 10^−11 M), competitor 1 × 10^−9 to 10^−6 M; for Selectivity (S = KL/KCi): at start of study, KL = K0 of regular human insulin, KCi = K0 of the competitor analog
Experimental: The homogeneous mono [^125I A14]
For in vitro cross-reactivity assessment a displacement RIA was applied by using the tracer described above. Briefly, duplicate 30 μL serum samples from the patient were incubated during 5 days at 4 °C (near equilibrium) with a constant amount of tracer (∼20,000 cpm). […] Insulin analogs were engineered to enhance desired molecular properties without altering immunogenicity, at least in theory. However, since the amino acid sequence of these insulin variants were changed to alter its absorption, distribution, metabolism and excretion characteristics, some residual capacity to elicit specific antibodies must be expected. […] Also the grade of alteration of the natural insulin molecule is of importance.
In order to express the degree of cross reactivity of IA induced by the initial insulin formulation (¨Ligand̈, L), against a panel of slow or fast action insulin analogs as described above (Competitors̈, Ci), the parameter selectivity (S), as defined elsewhere (Berzofsky and Schechter; Berzofsky et al.), was employed. Approximate values for average (median) affinity (K0) for L and those from each Ci, were obtained from the plots of B/F signals as a function of each competitor concentration, interpolating in the abscissa axis the respective doses corresponding to the maximum/2 signal [(B/F)0/2] (Graphical abstract, RIA plot). Alternatively, a best fit to the true affinity constants was obtained by representing B/F signals for each ligand as a function of free tracer (F) calculated by the formula: F = [C/(1 + B/F)]. It is important to emphasize that the molar concentration of the tracer in the test must be lower than the inverse of K0 value. This condition precludes the preparation of the respective labeled competitors to perform specific single RIAs for each homologous ligand. (Berzofsky and Schechter). In the RIA the concentration of tracer was 5.8 × 10^−11 M (see Preparation of the homogeneous tracer mono [^125I A14] Insulin) and K0 values for IA (ranging 10^6–10^8 M^−1) were obtained from previous work of our laboratory (Trabucchi et al.; Trabucchi et al.).
Finally, the respective Selectivity ratios were obtained using the expression: Si = KL/KCi.

[2] = cited from earlier work
Excerpt: Detemir is an insulin analog in which a fatty acid (myristic acid) is bound to the lysine amino acid at position B29. […] Accordingly, its persistence as a potential antigen in circulation must not be ruled out. Glargine was created by modifying three amino acids. […] In order to avoid ... || Glulisine is a rapid-acting insulin analog that differs from human insulin in that the amino acid asparagine at position B3 is replaced by lysine and the lysine in position B29 is replaced by glutamic acid.

[3] = background, no reference given, cited from earlier work
Excerpt: (§1) Detemir is an insulin analog in which a fatty acid (myristic acid) is bound to the lysine amino acid at position B29. […] Accordingly, its persistence as a potential antigen in circulation must not be ruled out. Glargine was created by modifying three amino acids. […] In order to avoid ...

[4] = Metabolic control of the patient (glycaemia, HbA1c) under insulin treatment; assay type: in vivo, human
[5] = test system: anti-insulin antibodies (IA)
Experimental: Insulin used as a tracer for both radiometric methods, RBA and RIA, was produced using recombinant human insulin (HumulinC from Eli Lilly, Indiana, USA) devoid of preservative substances by chromatography on a Sephadex G25 column (Amersham Biosciences, New Jersey, USA). The labeling and HPLC purification steps were carried out following as indicated by Linde et al. [3] and Jørgensen et al. [4], respectively. Specific radioactivity of roughly 300–380 μCi/μg was routinely achieved.
The concentration of tracer in both, RBA and RIA, was 5.8 × 10^−11, calculated from an activity of 20,000 cpm; Relative mass of insulin, 5808 Da; Final incubation volume, 0,12 mL; Gamma counter efficiency, 70%; Specific activity of fresh insulin tracer, 380 μCi/μg.
Radioligand binding assay for IA assessment, performed routinely as official analysis service at IDEHU-CONICET laboratory, was based on the original procedure indicated by Kurtz et al. [5] and carried out essentially as previously described by Stumpo et al. [6]. […] Results were expressed as specific insulin binding percentage B% = Bwi% (preincubated without cold insulin) – Bie% (preincubated with excess cold insulin). Reproducibility was assessed at different binding levels. […]

[6] = test system: insulin receptor; details: effect of the sequence modification; background, no reference given; cited from earlier work
Excerpt: (§2) Lispro was engineered through recombinant DNA technology so that the penultimate lysine and proline residues on the C-terminal end of the B-chain were reversed. […] This allowed larger amounts of active monomeric insulin to be available for postprandial (after meal) injections. Similar to Glulisine, the monomeric state of Lispro theoretically may diminish the chance of phagocytosis by cells of the Immune System resulting in lower immunogenicity.

[7] = effect of the sequence modification; background, no reference given; cited from earlier work
Excerpt: as §2

[8] = test system: serum albumin; details: background, no reference given; cited from earlier work
Excerpt: as §1

[9] = before change, more than 3 IU/kg/day NPH human insulin complemented with crystalline human insulin
[10] = after 6 months of Glulisine 0,6 IU/Kg/day by pump infusion

Substance: Glargine
K0, average (median) affinity constant [1]: 2.1e+07 M⁻¹ | Selectivity (S = KL/KCi) [1]: 37.6 | duration/onset of action (in words) ([2]; background, no reference given): prolonged action when compared with biosynthetic human insulin | solubility at physiological pH (in words) ([3]; physiological pH): less soluble at a physiological pH | isoelectric point ([3]; shifted from 5.4 by two added arginine residues): 6.7 | solubility at slightly acidic pH (in words) ([3]; slightly acidic pH): more soluble at a slightly acidic pH

Substance: NPH human insulin: NPH human insulin (Humulin – Eli Lilly) complemented with crystalline human insulin
HbA1C [4, 9]: 11% | HbA1C (IFCC) [4, 9]: 97 mmol/mol | metabolic control (in words) ([4]; before change, more than 3 IU/kg/day NPH human insulin complemented with crystalline human insulin, last two years): inadequate metabolic control

Substance: Glulisine
HbA1c [4, 10]: 7.6% | HbA1c (IFCC) [4, 10]: 60 mmol/mol | metabolic control (in words) [4, 10]: recovered metabolic control | K0, average (median) affinity constant [1]: 1e+06 M⁻¹ | Selectivity (S = KL/KCi) [1]: 790 | IA binding rate compared with regular human insulin ([1]; in vitro, at the same doses, start of study): 1/790 | change of B% signal (in words) [5]: significant decrease in B% signal | duration/onset of action (in words) ([2]; background, no reference given): rapid-acting

The next lines start with results.

K0, average (median) affinity constant [1]: 7.9e+08 M⁻¹
Substance: regular human insulin: unlabeled regular crystalline human insulin (Humulin, Eli Lilly)

K0, average (median) affinity constant [1]: 1.96e+07 M⁻¹ | Selectivity (S = KL/KCi) [1]: 40.3 | K0, affinity constant ([1]; control RIA on serum sample after 14 months (of Glulisine treatment)): 3.4e+07 M⁻¹
Substance: Lispro
insulin receptor binding (in words) [6]: did not alter the insulin receptor binding | formation of insulin dimers and hexamers (in words) [7]: blocked the formation of insulin dimers and hexamers

Selectivity (S = KL/KCi) [1]: ~1
Substance: Detemir
duration/onset of action (in words) [2]: increasing its duration of action | affinity for serum albumin (in words) [8]: high affinity for serum albumin
